pIC50: −log10 of the molar value. Read-outs that look alike come from different tables or passages of the source.
What was measured:
[1] = system: MCF7 cells; assay: cells; type: cell-based; conditions: for pIC50: read-out: IC50 - drug concentration which causes 50% cell growth inhibition
Source text: (§1) In Vitro Cytotoxicity Studies.

[2] = system: HL60 cells; assay: cells; type: cell-based; conditions: for pIC50: read-out: IC50 - drug concentration which causes 50% cell growth inhibition
Source text: as §1

[3] = system: A549 cells; assay: cells; conditions: for pIC50: read-out: IC50 - drug concentration which causes 50% cell growth inhibition
Description: (§2) Cancer Cell Lines. Human colon carcinoma HCT116 and HT29, human melanoma MELSK2, human lung cancer A549, human leukemia HL60 and human breast cancer MCF7 cells were purchased from the American Type Culture Collection (Rockville, Md.). Human pancreatic tumor cell lines 6.03 and 10.05 were a gift from Dr. Elizabeth Jaffe, Johns Hopkins University.
(§3) In Vitro Cytotoxicity Studies. Cells were seeded in quadruplicate for each studied concentration in 96-well plates (100 μL of medium containing 2000-2500 cells per well) and were allowed to grow for 24 h (day 0). Stock solutions (2.5 mM) of test compounds were prepared freshly by dissolving their free base forms in distilled water-DMSO (50:50) mixture containing two equivalents of methanesulfonic acid and then diluted in distilled water to the concentration of 500 μM. These solutions were used to prepare 2 μM working solution and its 10-fold serial dilutions in appropriate media. 100 μL of drug containing medium or vehicle (control) was added to each well on day 1. The cytotoxicity was determined using two different methods: the MTT-based, CellTiter96™ Non-Radioactive Cell Proliferation Assay (Promega Inc., Madison, Wis.) according to instructions provided by the manufacturer, and/or the sulforhodamine B (SRB) method (Skehan et al., J. Natl. Cancer Inst. 82:1107-1112 (1990)). At the time at which drugs were added assays were performed on extra reference plates to determine the cell population density at time 0 (T0). After 96 h incubation at 37 ° C. in a humidified atmosphere containing 5% CO2, the assays were performed on test (T) and control (C) plates. The absorbance of the wells was determined by a Microplate Reader at […]. Cellular responses were calculated from the data as described previously: 100×[(T−T0)/(C−T0)] for T>T0 and 100×[(T−T0)/T0] for T<T0. (Monks et al., J. Natl. Cancer Inst. 83:757-766 (1991)).
(§4) At the end of the test period the wells are treated with the MTT dye solution and incubated for 4 hours. Cells which are alive convert the yellow tetrazolium dye into the blue, insoluble formazan product. This precipitate is solubilized, and the absorption at 570 nm is read in an ELISA reader.

[4] = system: HT29 cells; assay: cells; conditions: for pIC50: read-out: IC50 - drug concentration which causes 50% cell growth inhibition
Description: as §2, §3, §4

[5] = system: MELSK2 cells; assay: cells; conditions: for pIC50: read-out: IC50 - drug concentration which causes 50% cell growth inhibition
Description: as §2, §3, §4

[6] = system: HCT116 cells; assay: cells; conditions: for pIC50: read-out: IC50 - drug concentration which causes 50% cell growth inhibition; for growth inhibition of HCT116 at 1 nM: MTT dose-response
Description: as §2, §3, §4

[7] = system: 6.03 pancreatic cancer cells; assay: Flow cytometry (FACS) cell cycle analysis, 6.03; type: cell-based, human; conditions: 6.03 cells
Description: (§5) Flow Cytometry Analysis. A suspension of 0.5×10^6 cells in 8 ml of medium were placed in 25 cm^2 T flask and allowed to attach for 24 h. The cells were then exposed for 6 h to 100 nM of drug . After removal of drug the cells were washed with PBS. Fresh medium (8 ml) was added and incubation at 37° C. in 5% CO2 in complete humidity was continued for an additional five days. At appropriate intervals, treated and control cells were released from flasks by incubation with trypsin (0.05 mg/ml)/EDTA (0.02 mg/ml) for 5 min at 37° C., collected in ice-cold PBS, combined with the removed medium that might contain floating cells, and centrifuged at 4° C. Cell pellets were re-suspended in PBS containing 1% fetal bovine serum. The cells were fixed and stained for fluorescence-activated cell sorting according to standard procedures (Crissman et al., Cytometry 3:84-90(1992)). Fluorescence histograms were obtained on a Coulter EPICS753 Cell Sorter using an argon laser and mean peaks were analyzed.
(§6) Similar cell cycle experiments were carried out on the 10.05 pancreatic cancer line.

[8] = system: HCT116, HT29, A549 and MelSK2 tumor cell lines; assay: MTT cell proliferation assay at 100 nM on four tumor cell lines (FIG. 2); type: cell-based; conditions: 96 hours; for cytotoxic activity against the three adenocarcinomas: HCT116, HT29, A549
Description: as §2
as §3, with “(Monks et al., J. Natl. Cancer Inst. 83:757-766 (1991)).” left out
At the end of the test period the wells are treated with the MTT dye solution and incubated for 4 hours. […] This precipitate is solubilized, and the absorption at 570 nm is read in an ELISA reader.

[9] = system: 10.05 pancreatic cancer cells; assay: Morphological examination of treated cells; type: cell-based, human; conditions: 10.05 cells, treated vs untreated
Source text: The FACS analysis evidence of apoptosis was substantiated by morphological examination of the treated 10.05 pancreatic cancer cells. […] Similar results were obtained with the 6.03 cells.

[10] = system: pancreatic cell line 10.05; assay: SRB-based assay, pancreatic cell line 10.05 (FIG. 5); design: species or system human; conditions: 120 hrs exposure
Source text: as §1
(§7) The compound of Example 2 is also potently cytotoxic against extremely refractory pancreatic cancer cell lines. FIG. 5 presents the results of an SRB-based assay on the toxicity of Example 2 against the four cell lines mentioned above, and against two pancreatic cell lines, 6.03 and 10.05 (obtained from Dr. Elizabeth Jaffe, Johns Hopkins University, Baltimore Md.). […] were exposed to the agent for 120 hrs. It is clear that both of these lines are sensitive to the compound.

[11] = system: HCT 116 colon cancer cell; assay: Flow cytometry (FACS) cell cycle analysis, HCT116; type: cell-based, human; conditions: 100 nM for 6 hrs, then culture
Description: as §5
In order to determine the mode of cell death induced by the compounds of the invention, the effect of the compound of Example 2 on the cell cycle was studied, utilizing Fluorescence Activated Cell Sorting SACS) analysis. HCT 116 colon cancer cell were treated with the compound of Example 2 for 6 hrs at a concentration of 100 nM, and then allowed to grow in culture for varying times.

[12] = system: HCT116, HT29, A549 and Mel.SK2 tumor cell lines; assay: Sulforhodamine B (SRB) assay on the four tumor types (FIG. 4); type: cell-based; conditions: varying concentrations
Source text: as §1

[13] = system: pancreatic cell line 6.03; assay: SRB-based assay, pancreatic cell line 6.03 (FIG. 5); design: species or system human; conditions: 120 hrs exposure
Source text: as §1, §7

[14] = system: NCI 60 human tumor cell line panel; assay: NCI 60 human tumor cell line panel; type: cell-based; conditions: NCI 60 panel
[15] = system: 10.05 pancreatic cancer line; assay: Flow cytometry (FACS) cell cycle analysis, 10.05; type: cell-based, human; conditions: 10.05 cells
Description: as §5, §6

[16] = MCF7, 96 h incubation, read-out: LC50 - drug concentration which causes 50% cell death
[17] = HL60, 96 h incubation, read-out: LC50 - drug concentration which causes 50% cell death
[18] = read-out: LC50 - drug concentration which causes 50% cell death, A549, 96 h incubation
[19] = read-out: LC50 - drug concentration which causes 50% cell death, HT29, 96 h incubation
[20] = read-out: LC50 - drug concentration which causes 50% cell death, MELSK2, 96 h incubation
[21] = read-out: LC50 - drug concentration which causes 50% cell death, HCT116, 96 h incubation

CN(CCCNc1ccc2ncn3c4ccccc4c(=O)c1c23)CCCN1C(=O)c2cccc3cc([N+](=O)[O-])cc(c23)C1=O [Example 1]
pIC50 ([1]; MCF7, 96 h incubation): 7.30
CC50 [1, 16]: > 1000 nM
pIC50 ([2]; HL60, 96 h incubation): 6.92
CC50 [2, 17]: 500 nM
pIC50 ([3]; A549, 96 h incubation): 7.60
CC50 [3, 18]: 500 nM
pIC50 ([4]; HT29, 96 h incubation): 7.60
CC50 [4, 19]: 400 nM
pIC50 ([5]; MELSK2, 96 h incubation): 6.82
CC50 [5, 20]: > 1000 nM
pIC50 ([6]; HCT116, 96 h incubation): 8.10
CC50 [6, 21]: 220 nM

O=C1c2cccc3cc([N+](=O)[O-])cc(c23)C(=O)N1CCCN1CCN(CCCNc2ccc3ncn4c5ccccc5c(=O)c2c34)CC1 [Example 2]
apoptosis by cell cycle analysis [7]: strong evidence of apoptosis
cytotoxic activity against the three adenocarcinomas [8]: outstanding cytotoxic activity
morphology of treated cells [9]: evidence of chromatin fragmentation
effect on line 10.05 at 1 μM [10]: substantial cell death
cell cycle effect at 24 hrs ([11]; 24 hrs): growth arrested at G2-M
sub-G1 fraction (apoptotic death) at 96 hrs ([11]; 96 hrs): dominated the distribution
cytotoxic activity in the SRB assay compared with MTT [12]: essentially mirror the results obtained with the MTT end-point
effect on line 6.03 at 100 nM [13]: growth arrested
CC50 [1]: > 1000 nM
pIC50 ([1]; MCF7, 96 h incubation): 8.49
CC50 [2]: 33 nM
pIC50 ([2]; HL60, 96 h incubation): 8.46
median activity, growth inhibition of all of the tumor cell lines [14]: nanomolar range
apoptosis (growth of the sub-G1 fraction) at 144 hrs [15]: substantial apoptosis
CC50 [3]: 35 nM
pIC50 ([3]; A549, 96 h incubation): 9.22
CC50 [4]: 65 nM
pIC50 ([4]; HT29, 96 h incubation): 9.05
CC50 [5]: 60 nM
pIC50 ([5]; MELSK2, 96 h incubation): 8.40
CC50 [6]: 32 nM
growth inhibition of HCT116 at 1 nM ([6]; FIG. 3): almost complete growth inhibition
pIC50 ([6]; HCT116, 96 h incubation): 9.30

O=C1c2cccc3cc([N+](=O)[O-])cc(c23)C(=O)N1CCCN1CCN(CCCNc2ccc3ncn4c5ccc(F)cc5c(=O)c2c34)CC1 [Example 4]
cytotoxic activity against the three adenocarcinomas [8]: outstanding cytotoxic activity
CC50 [1]: > 1000 nM
pIC50 ([1]; MCF7, 96 h incubation): 8.46
CC50 [2]: 33 nM
pIC50 ([2]; HL60, 96 h incubation): 8.46
CC50 [3]: 35 nM
pIC50 ([3]; A549, 96 h incubation): 9.22
CC50 [4]: 35 nM
pIC50 ([4]; HT29, 96 h incubation): 8.82
CC50 [5]: 70 nM
pIC50 ([5]; MELSK2, 96 h incubation): 8.40
CC50 [6]: 35 nM
growth inhibition of HCT116 at 1 nM ([6]; FIG. 3): almost complete growth inhibition
pIC50 ([6]; HCT116, 96 h incubation): 9.30

Nc1cc2c3c(cccc3c1)C(=O)N(CCCN1CCN(CCCNc3ccc4ncn5c6ccccc6c(=O)c3c45)CC1)C2=O [Example 6]
pIC50 ([1]; MCF7, 96 h incubation): 7.49
CC50 [1, 16]: > 1000 nM
pIC50 ([2]; HL60, 96 h incubation): 8.30
CC50 [2, 17]: 450 nM
pIC50 ([3]; A549, 96 h incubation): 8.60
CC50 [3, 18]: 100 nM
pIC50 ([4]; HT29, 96 h incubation): 8.10
CC50 [4, 19]: 750 nM
pIC50 ([5]; MELSK2, 96 h incubation): 7.82
CC50 [5, 20]: 750 nM
pIC50 ([6]; HCT116, 96 h incubation): 8.66
CC50 [6, 21]: 80 nM

Nc1cc2c3c(cccc3c1)C(=O)N(CCCN1CCN(CCCNc3ccc4ncn5c6ccc(F)cc6c(=O)c3c45)CC1)C2=O [Example 8]
CC50 [1]: > 1000 nM
pIC50 ([1]; MCF7, 96 h incubation): 7.34
CC50 [2]: 450 nM
pIC50 ([2]; HL60, 96 h incubation): 8.40
CC50 [3]: 150 nM
pIC50 ([3]; A549, 96 h incubation): 8.70
CC50 [4]: > 1000 nM
pIC50 ([4]; HT29, 96 h incubation): 8.46
CC50 [5]: > 1000 nM
pIC50 ([5]; MELSK2, 96 h incubation): 7.70
CC50 [6]: 230 nM
pIC50 ([6]; HCT116, 96 h incubation): 8.74

CN(C)CCN1C(=O)c2cccc3cc([N+](=O)[O-])cc(c23)C1=O [Mitonafide, mitonafide, reference compound]
activity at 100 nM drug concentration ([8]; HCT116, HT29, A549, MelSK2): not very active
pIC50 ([1]; Homo sapiens, MCF7, 96 h): 6.61
CC50 ([1]; Homo sapiens, MCF7, 96 h, read-out: LC50 - drug concentration which causes 50% cell death): > 1000 nM
pIC50 ([2]; Homo sapiens, HL-60, 96 h): 7.35
CC50 ([2]; Homo sapiens, HL-60, 96 h, read-out: LC50 - drug concentration which causes 50% cell death): 400 nM
pIC50 ([3]; Homo sapiens, A549, 96 h): 7.19
CC50 ([3]; Homo sapiens, A549, 96 h, read-out: LC50 - drug concentration which causes 50% cell death): 800 nM
pIC50 ([4]; Homo sapiens, HT-29, 96 h): 6.52
pIC50 ([5]; Homo sapiens, 96 h): 6.82
CC50 ([5]; Homo sapiens, 96 h, read-out: LC50 - drug concentration which causes 50% cell death): 700 nM
concentration at which almost complete growth inhibition is reached ([6]; HCT116, MTT dose-response, FIG. 3): 1 µM
pIC50 ([6]; Homo sapiens, HCT-116, 96 h): 6.60
CC50 ([6]; Homo sapiens, HCT-116, 96 h, read-out: LC50 - drug concentration which causes 50% cell death): > 1000 nM
